The record followed here is publication PMC8022858, “Discovery of bone morphogenetic protein 7-derived peptide sequences that attenuate the human osteoarthritic chondrocyte phenotype” (Molecular Therapy. Methods & Clinical Development, 2021).

In this assay the test system is BRE reporter (SMAD1/5/8 dependent) in SW1353 chondrocytic cells. Nature of the assay: BRE firefly luciferase reporter assay. In kind it is cell-based. The following applies: 8 h peptide exposure, firefly normalized to Gaussia luciferase, relative to control (Figure 5B). How it is done: Figure 5 Molecular characterization of peptides p[63−82] and p[113−132] (A) A pool of OA-HACs (n = 4 donors) was transfected with a scrambled siRNA or with an NKX3-2 siRNA (100 nM siRNA) and cultured for 24 h. Cultures were then exposed to peptide p[63−82] or p[113−132] (100 nM peptide). Samples were harvested 24 h later and analyzed for the expression of the indicated mRNAs (normalized to 28S rRNA). (B) SW1353 chondrocytic cells were transfected with BRE (SMAD1/5/8 reporter) or CAGA12 (SMAD2/3 reporter) firefly luciferase-reporter plasmids. A CMV-Gaussia plasmid was cotransfected as a transfection control. Cells were then cultured for 24 h and subsequently exposed to control, p[63−82], or p[113−132] for 8 h. Firefly and Gaussia bioluminescence were measured in cells and medium (respectively), and relative light units (RLUs) of firefly luciferase were normalized for the Gaussia luciferase signal. The normalized firefly luciferase signal of the control condition was set at 1, and peptide conditions were calculated relative to the control condition (FL/GL). Error bars represent mean ± SEM; statistical significance for peptide conditions versus siScrambled or siNKX3-2 (A) or control condition (B) as determined by unpaired two-tailed Student’s t test is represented as ∗p < 0.05, ∗∗p < 0.01, and ∗∗∗p < 0.001. […]
(In general: Reporter assays use an easily measured gene product as a stand-in for the process of interest.)

H-SVLYFDDSSNVILKKYRNMV-OH [p[113−132]]: the BRE reporter activity result is “induce”.
As for H-AAYYSEGESAFPLNSYMNAT-OH [p[63−82]], the entry is “induce”.
